From article PMC7156458, “Synthetic biology based construction of biological activity-related library of fungal decalin-containing diterpenoid pyrones” (Nature Communications, 2020)

Target: Aβ42 (Homo sapiens, UniProt P05067)
Experiment: Th-T (thioflavin-T) assay of Aβ42 aggregation
Assay type: biochemical
Details: for Th-T assay plate reading, mean of three wells (Supplementary Fig. 47): source data, Ab alone and No Ab as controls

Chain of Aβ42 (P05067 672-713): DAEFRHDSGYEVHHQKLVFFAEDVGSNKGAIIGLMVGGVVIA

C=C1CCC2C(C)(CCC=C(C)C)C(O)CCC2(C)C1Cc1c(OC)oc(C)c(C)c1=O (stereo not drawn) [Compound 11]
Th-T fluorescence, mean of three wells (Aβ42 aggregation time course, reading M117): 3.419 | Th-T fluorescence, mean of three wells (Aβ42 aggregation time course, reading M118): 3.454 | Th-T fluorescence, mean of three wells (Aβ42 aggregation time course, reading M119): 3.399 | Th-T fluorescence, mean of three wells (Aβ42 aggregation time course, reading M120): 3.398 | Th-T fluorescence, mean of three wells (Aβ42 aggregation time course, reading M121): 3.42 | Th-T fluorescence, mean of three wells (Aβ42 aggregation time course, reading M122): 3.434 | Th-T fluorescence, mean of three wells (Aβ42 aggregation time course, reading M123): 3.405 | Th-T fluorescence, mean of three wells (Aβ42 aggregation time course, reading M124): 3.409 | Th-T fluorescence, mean of three wells (Aβ42 aggregation time course, reading M125): 3.379 | Th-T fluorescence, mean of three wells (Aβ42 aggregation time course, reading M126): 3.403 | Th-T fluorescence, mean of three wells (Aβ42 aggregation time course, reading M127): 3.386 | Th-T fluorescence, mean of three wells (Aβ42 aggregation time course, reading M128): 3.37 | Th-T fluorescence, mean of three wells (Aβ42 aggregation time course, reading M129): 3.334 | Th-T fluorescence, mean of three wells (Aβ42 aggregation time course, reading M130): 3.361 | Th-T fluorescence, mean of three wells (Aβ42 aggregation time course, reading M131): 3.331 | Th-T fluorescence, mean of three wells (Aβ42 aggregation time course, reading M132): 3.363 | Th-T fluorescence, mean of three wells (Aβ42 aggregation time course, reading M133): 3.349 | Th-T fluorescence, mean of three wells (Aβ42 aggregation time course, reading M134): 3.347 | Th-T fluorescence, mean of three wells (Aβ42 aggregation time course, reading M135): 3.342 | Th-T fluorescence, mean of three wells (Aβ42 aggregation time course, reading M136): 3.355 | Th-T fluorescence, mean of three wells (Supplementary Fig. 47, reading M137): 3.327 | Th-T fluorescence, mean of three wells (Supplementary Fig. 47, reading M138): 3.302 | Th-T fluorescence, mean of three wells (Supplementary Fig. 47, reading M139): 3.301 | Th-T fluorescence, mean of three wells (Supplementary Fig. 47, reading M140): 3.319 | Th-T fluorescence, mean of three wells (Supplementary Fig. 47, reading M141): 3.315 | Th-T fluorescence, mean of three wells (Supplementary Fig. 47, reading M142): 3.306 | Th-T fluorescence, mean of three wells (Supplementary Fig. 47, reading M143): 3.276 | Th-T fluorescence, mean of three wells (Supplementary Fig. 47, reading M144): 3.297 | Th-T fluorescence, mean of three wells (Supplementary Fig. 47, reading M145): 3.29 | Th-T assay plate reading, mean of three wells (Supplementary Fig. 47) (measurement M1): 0.2852 | Th-T assay plate reading, mean of three wells (Supplementary Fig. 47) (measurement M2): 0.2849 | Th-T assay plate reading, mean of three wells (Supplementary Fig. 47) (measurement M3): 0.2915 | Th-T assay plate reading, mean of three wells (Supplementary Fig. 47) (measurement M4): 0.2733 | Th-T assay plate reading, mean of three wells (Supplementary Fig. 47) (measurement M5): 0.2777 | Th-T assay plate reading, mean of three wells (Supplementary Fig. 47) (measurement M6): 0.2762 | Th-T assay plate reading, mean of three wells (Supplementary Fig. 47) (measurement M7): 0.318 | Th-T assay plate reading, mean of three wells (Supplementary Fig. 47) (measurement M8): 0.3144 | Th-T assay plate reading, mean of three wells (Supplementary Fig. 47) (measurement M9): 0.404 | Th-T assay plate reading, mean of three wells (Supplementary Fig. 47) (measurement M10): 0.4577 | Th-T assay plate reading, mean of three wells (Supplementary Fig. 47) (measurement M11): 0.5537 | Th-T assay plate reading, mean of three wells (Supplementary Fig. 47) (measurement M12): 0.8108 | Th-T assay plate reading, mean of three wells (Supplementary Fig. 47) (measurement M13): 1.388 | Th-T assay plate reading, mean of three wells (Supplementary Fig. 47) (measurement M14): 1.929 | Th-T assay plate reading, mean of three wells (Supplementary Fig. 47) (measurement M15): 2.27 | Th-T assay plate reading, mean of three wells (Supplementary Fig. 47) (measurement M16): 2.506 | Th-T fluorescence, mean of three wells (reading M17, Supplementary Fig. 47 source data): 2.688 | Th-T fluorescence, mean of three wells (time-course reading M97, Supplementary Fig. 47 source data): 3.56 | Th-T fluorescence, mean of three wells (time-course reading M98, Supplementary Fig. 47 source data): 3.55 | Th-T fluorescence, mean of three wells (time-course reading M99, Supplementary Fig. 47 source data): 3.504 | Th-T fluorescence, mean of three wells (time-course reading M100, Supplementary Fig. 47 source data): 3.536 | Th-T fluorescence, mean of three wells (time-course reading M101, Supplementary Fig. 47 source data): 3.529 | Th-T fluorescence, mean of three wells (time-course reading M102, Supplementary Fig. 47 source data): 3.494 | Th-T fluorescence, mean of three wells (time-course reading M103, Supplementary Fig. 47 source data): 3.477 | Th-T fluorescence, mean of three wells (time-course reading M104, Supplementary Fig. 47 source data): 3.513 | Th-T fluorescence, mean of three wells (time-course reading M105, Supplementary Fig. 47 source data): 3.503 | Th-T fluorescence, mean of three wells (time-course reading M106, Supplementary Fig. 47 source data): 3.461 | Th-T fluorescence, mean of three wells (time-course reading M107, Supplementary Fig. 47 source data): 3.469 | Th-T fluorescence, mean of three wells (time-course reading M108, Supplementary Fig. 47 source data): 3.473 | Th-T fluorescence, mean of three wells (time-course reading M109, Supplementary Fig. 47 source data): 3.5 | Th-T fluorescence, mean of three wells (time-course reading M110, Supplementary Fig. 47 source data): 3.498 | Th-T fluorescence, mean of three wells (time-course reading M111, Supplementary Fig. 47 source data): 3.4993 | Th-T fluorescence, mean of three wells (time-course reading M112, Supplementary Fig. 47 source data): 3.484 | Th-T fluorescence, mean of three wells (time-course reading M113, Supplementary Fig. 47 source data): 3.437 | Th-T fluorescence, mean of three wells (time-course reading M114, Supplementary Fig. 47 source data): 3.447 | Th-T fluorescence, mean of three wells (time-course reading M115, Supplementary Fig. 47 source data): 3.426 | Th-T fluorescence, mean of three wells (time-course reading M116, Supplementary Fig. 47 source data): 3.43
